For 28 molecules, EC50 and CC50 results are on record in US20230203004A1, “RSV INHIBITING 3-SUBSTITUTED QUINOLINE AND CINNOLINE DERIVATIVES” (Janssen Sciences Ireland Unlimited Company, priority 2020, published 2023).

One data set has as its system rgRSV224 virus. Briefly: Antiviral activity: rgRSV224 (GFP) replication in HeLa cells. The conditions noted are these: human respiratory syncytial virus, HeLa, 72 h, read-out: RSV HELA EC50, HeLa cells, rgRSV224 MOI = 1, GFP expression three days post-virus exposure; averaged data of several repeat experiments. Type of data set: cell-based, respiratory syncytial virus (RSV). An outline of the steps:
(§1)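 HeLa cells infected with GFP-expressing rgRSV224 at MOI 1 in RPMI/10% FBS, 0.05% DMSO, with 9 serial 4-fold compound dilutions; 3 days at 37 °C, GFP read by laser microscopy for EC50. Cytotoxicity: uninfected HeLa cells, 3 days, cellular ATP (ATPlite) for CC50.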

The nature of data set [1]: Cytotoxicity in HeLa cells (ATP content, ATPlite kit). In kind it is cell-based. The conditions noted are these: human, TOX HELA CC50. In a few lines: as §1
A general note: In ATP-based viability assays light output follows the ATP content of the culture.

In general, EC50 refers to the concentration giving half of the maximal effect. By CC50 is commonly meant the concentration that lowers cell viability or growth by half. The low end stands for harm at low concentration, the high end for better tolerance by the cells. On to `COc1cc(C(=O)NC[C@](O)(c2cc(C(C)(C)O)c(F)c(-c3ccc(F)cc3)n2)C(C)C)cc2cc(C3CC3)nnc12` [compound 283, (-)Cyclopropyl-N-(2-(5-Fluoro-6-(4-Fluorophenyl)-4-(2-Hydroxypropan-2-yl)Pyridin-2-yl)-2-HydroxyMethylbutyl)-8-Methoxycinnoline-6-Carboxamide], for which the EC50 with rgRSV224 virus was found to be 8.5 nM. This molecule came in with a cytotoxic concentration (CC50) at 3 days in data set [1] of 12 µM.

As to `COc1cc(C(=O)NC[C@](O)(c2cc(C(C)(C)O)c(F)c(-c3ccc(F)cc3)n2)C2CC2)cc2cc(C(F)(F)F)nnc12` [compound 284], the 50% effective concentration (EC50) in the data set with rgRSV224 virus turned out to be 4.8 nM. The same molecule gave a CC50 at 3 days in data set [1] of 16 µM.

As for `COc1cc(C(=O)NC[C@](O)(c2cc(C(C)(C)O)c(F)c(-c3ccc(F)cc3)n2)C(C)C)cc2cc(C(F)F)nnc12` [compound 285, (S)(Difluoromethyl)-N-(2-(5-Fluoro-6-(4-Fluorophenyl)-4-(2-Hydroxypropan-2-yl)Pyridin-2-yl)-2-HydroxyMethylbutyl)-8-Methoxycinnoline-6-Carboxamide], the EC50 with rgRSV224 virus stood at 6.5 nM. Also, in data set [1], the CC50 at 3 days worked out at 16 µM.

As for `COc1cc(C(=O)NC[C@](O)(c2cc(C(C)(C)O)c(F)c(-c3ccc(F)cc3)n2)C(F)(F)F)cc2cc(C3CC3)nnc12` [compound 286, (-)Cyclopropyl-8-Methoxy-N-(3,3,3-Trifluoro-2-(5-Fluoro-6-(4-Fluorophenyl)-4-(2-Hydroxypropan-2-yl)Pyridin-2-yl)-2-Hydroxypropyl)Cinnoline-6-Carboxamide], the EC50 in the data set on rgRSV224 virus is 2.6 nM. The CC50 at 3 days in data set [1] is 8.9 µM.

With `COc1cc(C(=O)NC[C@](O)(c2nc(-c3ccc(F)cc3)c(F)c(C(C)(C)O)c2F)C2CC2)cc2cc(C(F)F)nnc12` [compound 287], the EC50 in the data set with rgRSV224 virus came to 8.9 nM. In data set [1], this molecule came in with a half-maximal cytotoxic concentration (CC50) at 3 days of 37 µM.

As for `COc1cc(C(=O)NC[C@](O)(c2nc(-c3ccc(F)cc3)c(F)c(C(C)(C)O)c2F)C2CC2)cc2cc(C3CC3)nnc12` [compound 288, (-)Cyclopropyl-N-(2-Cyclopropyl-2-(3,5-Difluoro-6-(4-Fluorophenyl)-4-(2-Hydroxypropan-2-yl)Pyridin-2-yl)-2-Hydroxyethyl)-8-Methoxycinnoline-6-Carboxamide], in the data set with rgRSV224 virus, the concentration giving a half-maximal response (EC50) turned out to be 4.8 nM. Half-maximal cytotoxicity in data set [1] (CC50 at 3 days) was put at 21 µM.

On to `[2H]C([2H])([2H])Oc1cc(C(=O)NC[C@](O)(c2cc(C(C)(C)O)c(F)c(-c3ccc(F)cc3)n2)C2CC2)cc2cc(C3CC3)nnc12` [compound 289, (-)Cyclopropyl-N-(2-Cyclopropyl-2-(5-Fluoro-6-(4-Fluorophenyl)-4-(2-Hydroxypropan-2-yl)Pyridin-2-yl)-2-Hydroxyethyl)-8-(Methoxy-d3)Cinnoline-6-Carboxamide], for which the concentration giving a half-maximal response (EC50) in the data set with rgRSV224 virus was determined as 1.8 nM. In addition, the 50% cytotoxic concentration (CC50) at 3 days in data set [1] was found to be 10 µM.

On to `[2H]C([2H])([2H])Oc1cc(C(=O)NC[C@](O)(c2cc(C(C)(C)O)c(F)c(-c3ccc(F)cc3)n2)C2CC2)cc2cc(C)nnc12` [compound 290], for which the EC50 in the data set on rgRSV224 virus was determined as 0.21 nM. In data set [1], this molecule yielded a CC50 at 3 days of 28 µM.

As for `Cc1cc2cc(C(=O)NC[C@](O)(c3cc(C(C)(C)O)cc(-c4ccc(F)cc4)n3)C(F)(F)F)cc(OC3CC3)c2nn1` [compound 291, (-)Cyclopropoxy-3-Methyl-N-(3,3,3-Trifluoro-2-(6-(4-Fluorophenyl)-4-(2-Hydroxypropan-2-yl)Pyridin-2-yl)-2-Hydroxypropyl)Cinnoline-6-Carboxamide], the concentration for a half-maximal effect (EC50) in the data set with rgRSV224 virus turned out to be 15 nM. Besides, half-maximal cytotoxicity in data set [1] (CC50 at 3 days) was put at 57 µM.

As for `COc1cc(C(=O)NC[C@](O)(c2cc(C(C)(C)O)c(F)c(-c3ccc(F)cc3)n2)C(F)F)cc2cc(C(F)F)nnc12` [compound 292, (-)-N-(3,3-difluoro-2-(5-fluoro-6-(4-fluorophenyl)-4-(2-hydroxypropan-2-yl)pyridin-2-yl)-2-hydroxypropyl)-3-(difluoromethyl)-8-methoxycinnoline-6-carboxamide], the EC50 with rgRSV224 virus was determined as 12 nM. The molecule further registered a CC50 at 3 days in data set [1] of 29 µM.

In the case of `COc1cc(C(=O)NC[C@](O)(c2cc(C(C)(C)O)c(F)c(-c3ccc(F)cc3)n2)C(F)F)cc2cc(C3CC3)nnc12` [compound 293, (-)Cyclopropyl-N-(3,3-Difluoro-2-(5-Fluoro-6-(4-Fluorophenyl)-4-(2-Hydroxypropan-2-yl)Pyridin-2-yl)-2-Hydroxypropyl)-8-Methoxycinnoline-6-Carboxamide], in the data set with rgRSV224 virus, the EC50 came out at 11 nM. This molecule also came in with a cytotoxic concentration (CC50) at 3 days in data set [1] of 15 µM.

As for `COc1cc(C(=O)NC[C@](O)(c2cc(C(C)(C)O)c(F)c(-c3ccc(F)cc3)n2)C2(F)CC2)cc2cc(C)nnc12` [compound 296], the EC50 in the data set on rgRSV224 virus was determined as 2 nM. Besides, it took 56 µM to reach half-maximal cytotoxicity in data set [1] (CC50 at 3 days).

`COc1cc(C(=O)NC[C@@](O)(c2cc(C(C)(C)O)c(F)c(-c3ccc(F)cc3)n2)C2(F)CC2)cc2cc(C)nnc12` [compound 297]: in the data set with rgRSV224 virus, the EC50 was 58 nM. Further, half-maximal cytotoxicity in data set [1] (CC50 at 3 days) was put at 45 µM.

In the case of `COc1cc(C(=O)NC[C@](O)(c2cc(C(C)(C)O)c(F)c(-c3ccc(F)cc3)n2)C2(C)CC2)cc2cc(C)nnc12` [compound 298], the concentration giving a half-maximal response (EC50) with rgRSV224 virus was 2.6 nM. This molecule showed a cytotoxic concentration (CC50) at 3 days in data set [1] of 52 µM.

With `COc1cc(C(=O)NC[C@@](O)(c2cc(C(C)(C)O)c(F)c(-c3ccc(F)cc3)n2)C2(C)CC2)cc2cc(C)nnc12` [compound 299], the concentration for a half-maximal effect (EC50) in the data set with rgRSV224 virus came to 93 nM. For the same molecule, the 50% cytotoxic concentration (CC50) at 3 days in data set [1] stood at 12 µM.

With `COc1cc(C(=O)NC[C@](O)(c2cc(C(C)(C)O)cc(-c3ccc(F)cc3)n2)C2CC2)cc2cc(C)nnc12` [compound 304], in the data set with rgRSV224 virus, the concentration for a half-maximal effect (EC50) was 2.1 nM. The midpoint of cytotoxicity in data set [1], the CC50 at 3 days, lay at 23 µM.

Turning to `COc1cc(C(=O)NC[C@@](O)(c2cc(C(C)(C)O)cc(-c3ccc(F)cc3)n2)C2CC2)cc2cc(C)nnc12` [compound 305], the half-maximal effective concentration (EC50) with rgRSV224 virus stood at 642 nM. Also, half-maximal cytotoxicity in data set [1] (CC50 at 3 days) was put at 41 µM.

Regarding `COc1cc(C(=O)NC[C@](O)(c2cc(C(C)(C)O)cc(-c3ccc(F)cc3)n2)C(C)(C)F)cc2cc(C)nnc12` [compound 306], the concentration giving a half-maximal response (EC50) with rgRSV224 virus amounted to 1 nM. The CC50 at 3 days in data set [1] is 50 µM.

For the molecule `COc1cc(C(=O)NC[C@@](O)(c2cc(C(C)(C)O)cc(-c3ccc(F)cc3)n2)C(C)(C)F)cc2cc(C)nnc12` [compound 307], in the data set with rgRSV224 virus, the EC50 worked out at 40 nM. In data set [1], this molecule yielded a CC50 at 3 days of 43 µM.

Regarding `Cc1cc2cc(C(=O)NC[C@](O)(c3cc(C(C)(C)O)c(F)c(-c4ccc(F)cc4)n3)C(F)F)cc(OC3CC3)c2nn1` [compound 308, (-)Cyclopropoxy-N-(3,3-Difluoro-2-(5-Fluoro-6-(4-Fluorophenyl)-4-(2-Hydroxypropan-2-yl)Pyridin-2-yl)-2-Hydroxypropyl)-3-Methylcinnoline-6-Carboxamide], the EC50 in the data set with rgRSV224 virus was determined as 2.3 nM. Also, half-maximal cytotoxicity in data set [1] (CC50 at 3 days) was put at 38 µM.

In the case of `COc1cc(C(=O)NC[C@](O)(c2cc(C(C)(C)O)cc(-c3ccc(F)cc3)n2)C(C)(F)F)cc2cc(C)nnc12` [compound 309, (-)-N-(3,3-difluoro-2-(6-(4-fluorophenyl)-4-(2-hydroxypropan-2-yl)pyridin-2-yl)-2-hydroxybutyl)-8-methoxy-3-methylcinnoline-6-carboxamide], the EC50 in the data set on rgRSV224 virus came to 11 nM. In data set [1], this molecule registered a 50% cytotoxic concentration (CC50) at 3 days of 34 µM.

With `COc1cc(C(=O)NC[C@@](O)(c2cc(C(C)(C)O)cc(-c3ccc(F)cc3)n2)C(C)(F)F)cc2cc(C)nnc12` [compound 310, (+)-N-(3,3-difluoro-2-(6-(4-fluorophenyl)-4-(2-hydroxypropan-2-yl)pyridin-2-yl)-2-hydroxybutyl)-8-methoxy-3-methylcinnoline-6-carboxamide], in the data set on rgRSV224 virus, the EC50 is more than 1250 nM. Also, the CC50 at 3 days in data set [1] amounted to 55 µM.

On to `[2H]C([2H])([2H])c1cc2cc(C(=O)NC[C@](O)(c3cc(C(C)(C)O)c(F)c(-c4ccc(F)cc4)n3)C(F)(F)F)cc(OC)c2nn1` [compound 311, (-)Methoxy-3-(Methyl-d3)-N-(3,3,3-Trifluoro-2-(5-Fluoro-6-(4-Fluorophenyl)-4-(2-Hydroxypropan-2-yl)Pyridin-2-yl)-2-Hydroxypropyl)Cinnoline-6-Carboxamide], for which the EC50 in the data set with rgRSV224 virus came to 1.3 nM. In data set [1], this molecule came in with a cytotoxic concentration (CC50) at 3 days of 42 µM.

Turning to `Cc1cc2cc(C(=O)NC[C@](O)(c3cc(C(C)(C)O)c(F)c(-c4ccc(F)cc4)n3)C(F)(F)F)cc(OC(F)F)c2nn1` [compound 312, (-)(Difluoromethoxy)-3-Methyl-N-(3.3.3-Trifluoro-2-(5-Fluoro-6-(4-Fluorophenyl)-4-(2-Hydroxypropan-2-yl)Pyridin-2-yl)-2-Hydroxypropyl)Cinnoline-6-Carboxamide], in the data set on rgRSV224 virus, the concentration for a half-maximal effect (EC50) is 2.8 nM. Besides, the half-maximal cytotoxic concentration (CC50) at 3 days in data set [1] came out at 13 µM.

Consider `COc1cc(C(=O)NC[C@](O)(c2cc(C(C)(C)O)c(F)c(-c3ccc(F)cc3)n2)C(C)(F)F)cc2cc(C)nnc12` [compound 313, (-)-N-(3,3-difluoro-2-(5-fluoro-6-(4-fluorophenyl)-4-(2-hydroxypropan-2-yl)pyridin-2-yl)-2-hydroxybutyl)-8-methoxy-3-methylcinnoline-6-carboxamide], for which the concentration giving a half-maximal response (EC50) with rgRSV224 virus is 1 nM. In data set [1], half-maximal cytotoxicity (CC50 at 3 days) was put at 42 µM.

In the case of `COc1cc(C(=O)NC[C@@](O)(c2cc(C(C)(C)O)c(F)c(-c3ccc(F)cc3)n2)C(C)(F)F)cc2cc(C)nnc12` [compound 314, (+)-N-(3,3-difluoro-2-(5-fluoro-6-(4-fluorophenyl)-4-(2-hydroxypropan-2-yl)pyridin-2-yl)-2-hydroxybutyl)-8-methoxy-3-methylcinnoline-6-carboxamide], the EC50 in the data set with rgRSV224 virus came to 168 nM. The molecule also came in with a 50% cytotoxic concentration (CC50) at 3 days in data set [1] of 35 µM.

With `[2H]C([2H])(NC(=O)c1cc(OC)c2nnc(C)cc2c1)[C@@](O)(c1cc(C(C)(C)O)c(F)c(-c2ccc(F)cc2)n1)C1CC1` [compound 315], in the data set on rgRSV224 virus, the 50% effective concentration (EC50) is 47 nM. In data set [1], the CC50 at 3 days was 27 µM.

Turning to `[2H]C([2H])(NC(=O)c1cc(OC)c2nnc(C)cc2c1)[C@](O)(c1cc(C(C)(C)O)c(F)c(-c2ccc(F)cc2)n1)C1CC1` [compound 316], in the data set with rgRSV224 virus, the 50% effective concentration (EC50) came out at 0.34 nM. Besides, it took 33 µM to reach half-maximal cytotoxicity in data set [1] (CC50 at 3 days).
